The values that follow come from patent US12344603B2 (Genentech, Inc., priority 2020, dated 2025).

Each structure is given as a SMILES string.

The target of this assay is IRE1α (Homo sapiens (Human), UniProt O75460, D688N). Nature of the assay: IRE1α TR-FRET competition binding assay (IRE1α HTRF). As to conditions: TR-FRET competition binding to kinase domain of IRE1α. Put shortly: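 Kinase domain (0.25 nM) pre-bound to 2 nM Eu anti-His antibody for 1 h at 4° C in HEPES pH 7.5/MgCl2/Brij 35/DTT/gamma globulin buffer, then mixed with compounds and 2 nM Alexa 647 ATP-competitive probe. 1 h at room temperature; probe displacement read as TR-FRET (Ex 347 nm, Em 665/615 nm).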
IRE1α, sequence (O75460 547-977 D688N): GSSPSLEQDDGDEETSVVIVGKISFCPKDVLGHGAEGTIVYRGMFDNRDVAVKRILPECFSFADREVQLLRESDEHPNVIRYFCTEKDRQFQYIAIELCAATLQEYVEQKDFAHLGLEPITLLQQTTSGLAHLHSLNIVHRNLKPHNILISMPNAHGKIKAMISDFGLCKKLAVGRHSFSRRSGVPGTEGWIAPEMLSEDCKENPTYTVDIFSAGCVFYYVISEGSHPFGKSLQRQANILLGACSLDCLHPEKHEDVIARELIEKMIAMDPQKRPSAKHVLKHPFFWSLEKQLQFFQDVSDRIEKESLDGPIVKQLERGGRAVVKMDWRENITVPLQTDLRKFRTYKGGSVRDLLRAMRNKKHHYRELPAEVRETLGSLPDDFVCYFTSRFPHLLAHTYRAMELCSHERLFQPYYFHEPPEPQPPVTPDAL
Compound `CC(C)n1c(=O)c(-c2ccc(NS(=O)(=O)CCC(F)(F)F)nc2)cc2cnc(N[C@H]3CC[C@H](N(C)C)CC3)nc21` [Example 215, N-(5-(2-(((1r,4r)-4-(dimethylamino)cyclo-hexyl)amino)-8-isopropyl-7-oxo-7,8-dihydropyrido[2,3-d]-pyrimidin-6-yl)pyridin-2-yl)-3,3,3-trifluoro-propane-1-sulfonamide] yielded a concentration for half-maximal inhibition (IC50) of 0.3 nM.

Consider `CC(C)n1c(=O)c(-c2ccc(NS(=O)(=O)CCC(F)(F)F)nc2)cc2cnc(N[C@@H]3CNC[C@@H](F)C3)nc21` [Example 216, 3,3,3-trifluoro-N-(5-(2-(((3S,5S)-5-fluoro-piperidin-3-yl)amino)-8-isopropyl-7-oxo-7,8-dihydropyrido[2,3-d]-pyrimidin-6-yl)pyridin-2-yl)propane-1-sulfon-amide], for which the IC50 was 1.7 nM. For `CC(C)n1c(=O)c(-c2ccc(NS(=O)(=O)CCC(F)(F)F)cn2)cc2cnc(N[C@H]3CC[C@H](N(C)C)CC3)nc21` [Example 218, N-(6-(2-(((1r,4r)-4-(dimethylamino)cyclo-hexyl)amino)-8-isopropyl-7-oxo-7,8-dihydropyrido[2,3-d]-pyrimidin-6-yl)pyridin-3-yl)-3,3,3-trifluoro-propane-1-sulfonamide], the IC50 worked out at 0.2 nM. Compound `CC(C)n1c(=O)c(-c2ccc(NS(=O)(=O)CCC(F)(F)F)c(F)c2)cc2cnc(NC3CCC4(CC3)CNC4)nc21` [Example 220, N-(4-(2-((2-azaspiro[3.5]nonan-7-yl)amino)-8-isopropyl-7-oxo-7,8-dihydropyrido[2,3-d]pyrimidin-6-yl)-2-fluorophenyl)-3,3,3-trifluoropropane-1-sulfonamide] gave an IC50 of 5 nM. Consider `CC(C)n1c(=O)c(-c2ccc(NS(=O)(=O)CCC(F)(F)F)c(F)c2)cc2cnc(NC3CCC4(CC3)CN(C)C4)nc21` [Example 221, 3,3,3-Trifluoro-N-(2-fluoro-4-(8-isopropyl-2-((2-methyl-2-azaspiro[3.5]nonan-7-yl)amino)-7-oxo-7,8-dihydropyrido[2,3-d]pyrimidin-6-yl)phenyl)propane-1-sulfonamide], for which the IC50 was 0.2 nM.

As to `CC(C)n1c(=O)c(-c2cnc(NS(=O)(=O)CCC(F)(F)F)c(F)c2)cc2cnc(N[C@H]3CC[C@H](N(C)C)CC3)nc21` [Example 222, N-(5-(2-(((1r,4r)-4-(dimethylamino)cyclo-hexyl)amino)-8-isopropyl-7-oxo-7,8-dihydropyrido[2,3-d]-pyrimidin-6-yl)-3-fluoropyridin-2-yl)-3,3,3-trifluoropropane-1-sulfonamide], the IC50 was determined as 0.3 nM. In the case of `CC(C)n1c(=O)c(-c2ccc(NS(=O)(=O)CCC(F)(F)F)cn2)cc2cnc(N[C@H]3CC[C@H](N(C)C)[C@H](F)C3)nc21` [Example 223, N-(6-(2-(((1S,3R,4S)-4-(Dimethylamino)-3-fluorocyclohexyl)amino)-8-isopropyl-7-oxo-7,8-dihydropyrido[2,3-d]pyrimidin-6-yl)pyridin-3-yl)-3,3,3-trifluoropropane-1-sulfonamide], the IC50 was determined as 0.5 nM.

`CC(C)n1c(=O)c(-c2ccc(NS(=O)(=O)CCC(F)(F)F)nc2)cc2cnc(N[C@H]3CC[C@H](N(C)C)[C@H](F)C3)nc21` [Example 224] yielded an IC50 of 0.2 nM. `CC(C)n1c(=O)c(-c2ccc(NS(=O)(=O)CCC(F)(F)F)c(F)c2)cc2cnc(NC3CCC(O)C(N(C)C)C3)nc21` (centres unmarked) [Example 225, N-(4-(2-((3-(Dimethylamino)-4-hydroxycyclohexyl)amino)-8-isopropyl-7-oxo-7,8-dihydropyrido[2,3-d]pyrimidin-6-yl)-2-fluorophenyl)-3,3,3-trifluoropropane-1-sulfonamide] registered an IC50 of 5.4 nM. Turning to `CC(C)n1c(=O)c(-c2ccc(NS(=O)(=O)CCC(F)(F)F)c(F)c2)cc2cnc(N[C@@H]3CC[C@@H](N(C)C)[C@H](O)C3)nc21` [Example 227, N-(4-(2-(((1R,3R,4R)-4-(Dimethylamino)-3-hydroxycyclohexyl)amino)-8-isopropyl-7-oxo-7,8-dihydropyrido[2,3-d]pyrimidin-6-yl)-2-fluorophenyl)-3,3,3-trifluoropropane-1-sulfonamide], the IC50 amounted to 0.3 nM. In turn, `CC(C)n1c(=O)c(-c2ccc(NS(=O)(=O)CCC(C)(F)F)c(F)c2)cc2cnc(N[C@H]3CC[C@H](N(C)C)CC3)nc21` [Example 229, N-(4-(2-(((1r,4r)-4-(Dimethylamino)cyclohexyl)amino)-8-isopropyl-7-oxo-7,8-dihydropyrido[2,3-d]pyrimidin-6-yl)-2-fluorophenyl)-3,3-difluorobutane-1-sulfonamide] came in with an IC50 of 0.3 nM. In turn, `CC(C)n1c(=O)c(-c2ccc(NS(=O)(=O)CCC3(C)CC3)c(F)c2)cc2cnc(N[C@H]3CC[C@H](N(C)C)CC3)nc21` [Example 230, N-(4-(2-(((1r,4r)-4-(dimethylamino)cyclo-hexyl)amino)-8-isopropyl-7-oxo-7,8-dihydropyrido[2,3-d]-pyrimidin-6-yl)-2-fluorophenyl)-2-(1-methylcyclopropyl)-ethane-1-sulfonamide] yielded an IC50 of 0.2 nM.

Turning to `CC(C)n1c(=O)c(-c2ccc(NS(=O)(=O)CCC3CCC3)c(F)c2)cc2cnc(N[C@H]3CC[C@H](N(C)C)CC3)nc21` [Example 231, 2-cyclobutyl-N-(4-(2-(((1r,4r)-4-(dimethyl-amino)cyclohexyl)-amino)-8-isopropyl-7-oxo-7,8-dihydropyrido-[2,3-d]pyrimidin-6-yl)-2-fluorophenyl)ethane-1-sulfonamide], the IC50 amounted to 0.1 nM. For the compound `CC(C)n1c(=O)c(-c2ccc(NS(=O)(=O)CCCC3CC3)c(F)c2)cc2cnc(N[C@H]3CC[C@H](N(C)C)CC3)nc21` [Example 232, 3-cyclopropyl-N-(4-(2-(((1r,4r)-4-(dimethyl-amino)cyclohexyl)-amino)-8-isopropyl-7-oxo-7,8-dihydropyrido-[2,3-d]pyrimidin-6-yl)-2-fluorophenyl)propane-1-sulfonamide], the IC50 was determined as 0.2 nM.

For the compound `CC(C)n1c(=O)c(-c2cnc(NS(=O)(=O)CCC(F)(F)F)nc2)cc2cnc(N[C@H]3CC[C@H](N(C)C)CC3)nc21` [Example 233, N-(5-(2-(((1r,4r)-4-(Dimethylamino)cyclohexyl)amino)-8-isopropyl-7-oxo-7,8-dihydropyrido[2,3-d]pyrimidin-6-yl)pyrimidin-2-yl)-3,3,3-trifluoropropane-1-sulfonamide], the IC50 was 1.3 nM.

The compound `COCCN1CC2(CCC(Nc3ncc4cc(-c5ccc(NS(=O)(=O)CCC(F)(F)F)c(F)c5)c(=O)n(C(C)C)c4n3)CC2)C1` [Example 234, 3,3,3-Trifluoro-N-(2-fluoro-4-(8-isopropyl-2-((2-(2-methoxyethyl)-2-azaspiro[3.5]nonan-7-yl)amino)-7-oxo-7,8-dihydropyrido[2,3-d]pyrimidin-6-yl)phenyl)propane-1-sulfonamide] registered an IC50 of 0.2 nM. Compound `CC(C)n1c(=O)c(-c2ccc(NS(=O)(=O)CCC(F)(F)F)c(F)c2)cc2cnc(NC3CCC4(CC3)CN(CCF)C4)nc21` [Example 235, 3,3,3-trifluoro-N-(2-fluoro-4-(2-((2-(2-fluoroethyl)-2-azaspiro-[3.5]nonan-7-yl)amino)-8-isopropyl-7-oxo-7,8-dihydropyrido[2,3-d]-pyrimidin-6-yl)phenyl)-propane-1-sulfonamide] returned an IC50 of 0.3 nM.
